One data set relates to HeLa. Nature of the data set: Cytotoxicity against human HeLa cells assessed as decrease in cell viability measured after 72 hrs by WST-8 assay. In kind it is functional, cell-based.
Data set [1] concerns PANC-1. The data set can be described thus: Anti-austerity activity against nutrient-deprived human PANC-1 cells assessed as cell death incubated for 24 hrs by WST-8 assay. In kind it is functional. A general note: Formazan colour is commonly taken as a measure of viable cells.
In data set [2] the test system is PANC-1. The data set can be described thus: Cytotoxicity against nutrient-rich DMEM cultured human PANC-1 cells incubated for 24 hrs by WST-8 assay. In kind it is cell-based. As to conditions: panc-1, 24 h.
Data set [3] relates to PANC-1. Nature of the data set: Induction of morphological changes in human PANC-1 cells cultured in nutrient-deprived medium assessed as cell death at 20 uM measured after 24 hrs by ethidium bromide/acridine orange staining based phase contrast microscopy relative to control. The format is functional.
In data set [4] the test system is PANC-1. Nature of the data set: Inhibition of cell migration in human PANC1 cells assessed as open wound area at 20 uM cultured in nutrient rich DMEM medium measured after 24 hrs by quantitative real-time imaging based wound healing assay (reference value: 50%). The format is functional. Further details: scale not given: the % may be the effect or the level left.

For data set [5], the system named is PANC-1. Nature of the data set: Inhibition of cell migration in human PANC1 cells assessed as open wound area at 40 uM cultured in nutrient rich DMEM medium measured after 24 hrs by quantitative real-time imaging based wound healing assay (reference value: 50%). In kind it is functional. Also noted: scale not given: the % may be the effect or the level left.

Data set [6] has as its system PANC-1. Nature of the data set: Inhibition of cell migration in human PANC1 cells assessed as open wound area at 20 uM cultured in nutrient rich DMEM medium measured after 48 hrs by quantitative real-time imaging based wound healing assay relative to control. The format is functional. Further details: scale not given: the % may be the effect or the level left.
The test system of data set [7] is PANC-1. The data set can be described thus: Inhibition of cell migration in human PANC1 cells assessed as open wound area at 40 uM cultured in nutrient rich DMEM medium measured after 48 hrs by quantitative real-time imaging based wound healing assay relative to control. The format is functional. Also noted: scale not given: the % may be the effect or the level left.

The test system of data set [8] is PANC-1. The data set can be described thus: Inhibition of colony formation in human PANC-1 cells at 10 uM cultured in nutrient rich DMEM medium measured after 24 hrs by crystal violet staining based assay relative to control. The format is functional.
Data set [9] relates to PANC-1. Nature of the data set: Inhibition of colony formation in human PANC-1 cells at 20 uM cultured in nutrient rich DMEM medium measured after 24 hrs by crystal violet staining based assay relative to control. In kind it is functional.
The test system of data set [10] is PANC-1. Nature of the data set: Inhibition of colony formation in human PANC-1 cells at 40 uM cultured in nutrient rich DMEM medium measured after 24 hrs by crystal violet staining based assay relative to control. In kind it is functional.

The values below come from ChEMBL document CHEMBL4680331, “Ancistrobrevidines A-C and related naphthylisoquinoline alkaloids with cytotoxic activities against HeLa and pancreatic cancer cells, from the liana Ancistrocladus abbreviatus” (Bioorg Med Chem, 2021).

A word on the IC50: it is the midpoint of a concentration-inhibition curve. By inhibition is commonly meant the relative decrease from the control value, in per cent.

In the case of `COc1cc(OC)c(-c2ccc(O)c3c(OC)cc(C)cc23)c2c1C(C)=N[C@@H](C)C2`, the Activity result in the data set with HeLa is “Dose-dependent effect”; in the data set with PANC-1 [2], “Non-Toxic”; with PANC-1 [3], 100%; in the data set with PANC-1 [4], 62%; in the data set with PANC-1 [5], 77%; in the data set with PANC-1 [6] it was 25%. The Activity in the data set on PANC-1 [7] came out at 70%. Further, in the data set on HeLa, the IC50 was found to be 7.2 µM. Further, in the data set with PANC-1 [1], the PC50 amounted to 13.3 µM. The compound also registered an inhibition at 10 µM in the data set with PANC-1 [8] of 63%. Testing at 20 µM with PANC-1 [9] gave an inhibition of 95%. In the data set on PANC-1 [10], this compound displayed an inhibition at 40 µM of 100%.

In the case of `COc1cc(OC)c(-c2ccc(OC)c3c(OC)cc(C)cc23)c2c1C(C)=N[C@@H](C)C2` [ANCISTROEALAINE A], in the data set with PANC-1 [1], the PC50 was 18.8 µM.

On to `COc1cc(O)c(-c2c(C)cc(OC)c3c(OC)cccc23)c2c1C(C)=N[C@H](C)C2`, for which, in the data set on HeLa, the IC50 was over 100 µM. Moreover, the PC50 in the data set with PANC-1 [1] stood at 46.8 µM.

On to `COc1cccc2c1C(=O)C(=O)C(C)=C2c1c(OC)cc(O)c2c1C[C@H](C)N[C@H]2C`, for which the IC50 in the data set with HeLa was 84.3 µM. Besides, the PC50 in the data set on PANC-1 [1] turned out to be 28.5 µM.

With `COc1cc(OC)c(-c2c(C)cc(OC)c3c(OC)cccc23)c2c1C(C)=N[C@H](C)C2`, the IC50 in the data set on HeLa was determined as 46.9 µM. The PC50 in the data set on PANC-1 [1] is 64.5 µM.

For the compound `COc1cc(C[C@H]2C(=O)OC[C@@H]2Cc2ccc(OC)c(OC)c2)ccc1O` [ARCTIGENIN], in the data set with PANC-1 [1], the PC50 amounted to 0.83 µM.
